Measurements taken from PMC5138282, “Glyphosate-Resistant Parthenium hysterophorus in the Caribbean Islands: Non Target Site Resistance and Target Site Resistance in Relation to Resistance Levels” (Frontiers in Plant Science, 2016).
Like-named read-outs stand apart in the source and are kept apart here.

Columns and labels:
[1] = system: 5-enolpyruvylshikimate-3-phosphate synthase (EPSPS), P. hysterophorus accessions from Cuba; conditions: read-out: I50 (μM)^a; accession Cu-R1; natural mutant, native extract, other EPSPS alleles/copies not excluded; buffer as for Cu-S; stated gain
Description: phosphate release (EnzCheck phosphate assay kit), leaf extract on 5-enolpyruvylshikimate-3-phosphate synthase (EPSPS), P. hysterophorus accessions from Cuba

[2] = system: 5-enolpyruvylshikimate-3-phosphate synthase (EPSPS), P. hysterophorus accessions from Cuba; test: phosphate release (EnzCheck phosphate assay kit), leaf extract; type: biochemical, Parthenium hysterophorus; conditions: read-out: I50 (μM)^a
[3] = system: 5-enolpyruvylshikimate-3-phosphate synthase (EPSPS), P. hysterophorus accessions from Dominican Republic; test: as above; type: biochemical, Parthenium hysterophorus; conditions: buffer as for Cu-S, read-out: I50 (μM)^a
[4] = system: 5-enolpyruvylshikimate-3-phosphate synthase (EPSPS), P. hysterophorus accessions from Dominican Republic; conditions: read-out: I50 (μM)^a, natural mutant, native extract, other EPSPS alleles/copies not excluded, buffer as for Cu-S, stated gain
Description: phosphate release (EnzCheck phosphate assay kit), leaf extract on 5-enolpyruvylshikimate-3-phosphate synthase (EPSPS), P. hysterophorus accessions from Dominican Republic

O=C(O)CNCP(=O)(O)O [glyphosate, (N-phosphonomethyl)-glycine]
IC50 [1]: 646 ± 35.8 µM
IC50 ([2]; accession Cu-R2 (resistant plants, no Pro106 change), buffer as for Cu-S): 18.9 ± 1.4 µM
IC50 ([2]; accession Cu-R3 (resistant plants, no Pro106 change), buffer as for Cu-S): 17.4 ± 2.8 µM
IC50 ([2]; accession Cu-S (susceptible), 100 mM MOPS, 1 mM MgCl2, 10% glycerol, 2 mM sodium molybdate, 200 mM NaF): 13.6 ± 2.2 µM
IC50 ([3]; accession Do-R3 (resistant plants, no Pro106 change)): 22.6 ± 1.5 µM
IC50 ([3]; accession Do-R4 (resistant plants, no Pro106 change)): 20.8 ± 6.1 µM
IC50 ([3]; accession Do-S (susceptible)): 18.5 ± 5.7 µM
IC50 ([4]; accession Do-R1): 468 ± 22 µM
IC50 ([4]; accession Do-R2): 411 ± 26.1 µM
